This is an account of results in PMC12750222, “Cytosporone B Affects ATP Production of Trypanosoma cruzi: A Lethal Action Investigation” (ACS Omega, 2025).

The IC50 is the midpoint of a concentration-inhibition curve. By CC50 is commonly meant the concentration at which the toxic effect on the cells reaches its halfway point.

In data set [1] the test system is T. cruzi trypomastigotes (Y strain). Briefly: Antitrypomastigote assay (resazurin). The conditions noted are these: 24 h + 24 h resazurin, tested up to 150 μM, NA = no activity, read-out: IC50 (μM) ± SD Trypomastigote. The class given is cell-based, Trypanosoma cruzi. Here is the method: (§1) Murine conjunctive cells (NCTC clone 929, ATCC) and rhesus monkey kidney cells (LLC-MK2, ATCC CCL 7) were maintained in RPMI-1640 supplemented with 10% fetal bovine serum (FBS) at 37 °C in 5% CO2 humidified incubator. Peritoneal macrophages were collected by washing the peritoneal cavity of BALB/c mice with RPMI-1640 medium (Sigma-Aldrich) supplemented with 10% FBS, and were maintained at 37 °C in a 5% CO2 humidified incubator. T. cruzi trypomastigotes (Y strain) were cultivated by continuous in vitro passage in LLC-MK2, in RPMI-1640 supplemented with 2% FBS at 37 °C in 5% CO2 humidified incubator. Antitrypomastigote activity was evaluated in vitro using trypomastigotes obtained from infected LLC-MK2 cell cultures. The motile trypomastigotes, spontaneously released into the supernatant, were collected by centrifugation (2100g for 10 min), washed three times with cold PBS to remove cell debris and culture medium, and finally resuspended in fresh RPMI-1640 medium.
Antitrypomastigote activity was evaluated in vitro using trypomastigotes obtained from infected LLC-MK2 cell cultures. Briefly, […] (1 × 10^6 cells/well) were incubated with increasing concentrations of the test compounds (up to 150 μM) in RPMI-1640 medium supplemented with 10% fetal bovine serum, at 37 °C in a humidified atmosphere containing 5% CO2 for 24 h. After incubation, resazurin sodium salt (final concentration 44 μM) was added to each well, and the plates were further incubated for an additional 24 h under the same conditions. Resazurin is a redox-sensitive dye that is reduced by metabolically active parasites to the fluorescent compound resorufin, allowing the quantification of viable parasites.
The conversion of resazurin to resorufin was measured spectrophotometrically by reading the absorbance at 570 nm. The percentage of parasite viability was calculated relative to untreated controls. Benznidazole was used as a standard drug, and wells containing only medium served as negative controls.

Data set [2] has as its system T. cruzi intracellular amastigotes. Briefly: Antiamastigote assay in infected peritoneal macrophages (Giemsa, infection index). The class given is cell-based, Trypanosoma cruzi. The conditions noted are these: for IC50: 48 h, intracellular amastigotes in BALB/c peritoneal macrophages, tested up to 60 μM, NA = no activity, read-out: IC50 (μM) ± SD Amastigote; for SI (selectivity index): ratio between CC50 in NCTC cells and IC50 in intracellular amastigotes. Here is the method: as §1
Macrophages were seeded in 16-well chamber slides (NUNC Thermo Fisher Scientific, USA) and after 24 h infected with trypomastigotes (1:5, host cell/parasite ratio) for 2 h. Subsequently, infected cells were incubated with increasing concentrations of the compounds (up to 60 μM) for 48 h at 37 °C in 5% CO2 humidified incubator. After treatment, the cells were fixed and stained with Giemsa, and the slides were analyzed under a digital light microscope (EVOS M500, Thermo Fisher Scientific, USA). The infection index was determined by counting 200 macrophages and calculating the percentage of infected cells multiplied by the average number of amastigotes per infected macrophage. Benznidazole was used as a standard reference drug.

A further data set can be described thus: Cytotoxic assay (MTT). The class given is cell-based, Murine. The conditions noted are these: mouse, NCTC clone 929 fibroblast cells, NCTC clone 929 cells, highest tested concentration 200 μM. Here is the method: as §1
(§2) Cytotoxicity was evaluated in vitro using fibroblast cells (NCTC clone 929) seeded in a 96-well plate (6 × 10^4/well). The compounds were diluted in DMSO (30 mM) and diluted in RPMI-1640 medium without phenol red compounds using serial dilution from 1.56 to–200 μM. The compounds were incubated with the cells for 48 h at 37 °C in 5% CO2 humidified incubator. The MTT assay was used for viability determination. After the final incubation period, 20 μL of MTT (5 mg/mL) was added for 4 h and the plate was kept at 37 °C in 5% CO2 humidified incubator. To solubilize the formazan, 80 μL of SDS (10% v/v) was added and the microplate was incubated for 24 h at 25 °C. The microplate was read at 570 nm in a plate spectrophotometer (Varioskan, Thermo, USA).

In another data set the test system is T. cruzi. Also noted: method as in literature. The settings on record: T. cruzi treated with benznidazole; ref literature; cited from earlier work.
The subject of data set [3] is fibroblast cells (NCTC clone 929). Briefly: Cytotoxic assay (MTT). The data set is classed as cell-based, Murine. The conditions noted are these: NCTC clone 929 cells, 48 h, highest tested concentration 200 μM. Here is the method:
as §1, §2

In a further data set the test system is plants. Also noted: method as in literature. The settings on record: ref literature; cited from earlier work.
A further data set relates to Staphylococcus aureus. On the set-up: method as in literature. The settings on record: ref literature; cited from earlier work.
Another data set has as its system Enterococcus faecalis. Also noted: method as in literature. The conditions noted are these: ref literature; cited from earlier work.
Another data set deals with Escherichia coli. Also noted: method as in literature. The settings on record: ref literature; cited from earlier work.
The subject of a further data set is Candida albicans. On the set-up: method as in literature. The settings on record: ref literature; cited from earlier work.
In data set [4] the test system is T. cruzi trypomastigotes. In words: Mitochondrial membrane electric potential (JC-1, flow cytometry). The settings on record: 55 μM, 1 and 2 h, JC-1, ratio BL2/BL1. The class given is cell-based, Trypanosoma cruzi. Here is the method:
Mitochondrial membrane potential (ΔΨm) was evaluated using the JC-1 fluorescent probe, which accumulates in mitochondria in a potential-dependent manner, forming red-fluorescent aggregates in healthy cells with high ΔΨm and remaining as green-fluorescent monomers in cells with depolarized mitochondrial membranes. Trypomastigotes (2 × 10^6/well) were incubated with Csn-B (6) (55 μM) for 1 and 2 h, at 37 °C in HBSS + Glu. Carbonyl cyanide m-chlorophenyl hydrazone (CCCP) 100 μM was used as a positive control. After this period, parasites were washed in HBSS + Glu and resuspended with JC-1 dye (10 μM) in the dark for 10 min at 37 °C. Parasites were analyzed by flow cytometry (Attune NxT Flow Cytometer; Thermo Fisher Scientific, USA). ,
(§3) 3 Evaluation of mitochondrial membrane electric potential (ΔΨm) and ATP levels. T. cruzi trypomastigotes were incubated for 1 or 2 h with Cytosporone B (6) (55 μM). (A) ΔΨm was investigated with JC-1 dye by flow cytometry and reported as the ratio between the emission channels BL2/BL1. (B) ATP concentration was measured by luciferin/luciferase luminescent kit in a plate reader luminometer. In both analyses, untreated and treated […] with CCCP were used to achieve minimal and maximal depolarization, respectively. A representative experiment is shown. ***p < 0.005 and **p < 0.05.
A general note: In flow cytometry, cells or beads pass a laser one at a time.

The subject of data set [5] is T. cruzi trypomastigotes. Briefly: ATP levels (luciferin/luciferase). The data set is classed as cell-based, Trypanosoma cruzi. The settings on record: 55 μM, 1 and 2 h. Here is the method:
Intracellular ATP levels were measured using the ATP Determination Kit (Molecular Probes, Thermo Fisher Scientific, USA), based on the luciferin–luciferase bioluminescence reaction, in which the emitted light intensity is directly proportional to the ATP concentration present in the sample. Trypomastigotes (2 × 10^6/well) were treated with Csn-B (6) (55 μM) for 1 and 2 h. Carbonyl cyanide m-chlorophenyl hydrazone (CCCP) 100 μM was used as a positive control. After treatment, trypomastigotes were lysed using HBSS + Glu with 0.5% Triton X-100 and mixed with a standard reaction buffer (ATP Determination kit, Molecular Probes, USA) containing DTT (1 mM), luciferin (0.5 mM), and firefly luciferase (1.25 μg/mL). ,
as §3

The next data set has as its system bacteria. Also noted: method as in literature. The conditions noted are these: ref literature; cited from earlier work.
The test system of another data set is Nur77. On the set-up: method as in PMID 18690216. The settings on record: cited from earlier work.
In data set [6] the test system is human lung fibroblast MRC-5 cells. On the set-up: method as in PMID 29660469. The settings on record: cited from earlier work.
[7] abbreviates: Trypanosoma cruzi, Peritoneal macrophage, in Mus musculus.

Entries after “also recorded” stand apart in the source; their conditions may differ. Where two headings read alike, the source gives them in different places.

Turning to `O=C(Cn1ccnc1[N+](=O)[O-])NCc1ccccc1` [Benznidazole, reference compound], in [1] (Trypanosoma cruzi), the IC50 was found to be 17.7 ± 1.9 µM. The IC50 in data set [2] (setting [7]) turned out to be 5 ± 1.5 µM. The “SI (selectivity index)” value in [2] is 38.1. This compound also showed a CC50 at 48 h in the data set “Cytotoxic assay (MTT)” of 191 ± 13.4 µM. Besides, in the data set with T. cruzi, the mitochondrial membrane potential result is “depolarization” and the respiratory chain result is on record as “respiratory chain inhibition”.
`COC(=O)Cc1cc(O)cc(O)c1C(=O)CCCCCC(C)=O` [Compound 3, Dothiorelone P] yielded a cytotoxic concentration (CC50) in [3] of over 200 µM.
As to `CCCCCCCC(=O)c1c(O)cc(O)cc1CC(=O)O` [Compound 5, Cytosporone A], the IC50 in data set [2] worked out at 29.9 ± 0.5 µM. In [3], this compound showed a CC50 of over 200 µM. In the data set with plants, the “inhibition for germination and growth of plants” value is “inhibition”. The antimicrobial activity result in the data set with Staphylococcus aureus, in the data set with Enterococcus faecalis, in the data set with Escherichia coli and in the data set with Candida albicans was “antimicrobial activity” in each case.
For `CCCCCCCC(=O)c1c(O)cc(O)cc1CC(=O)OCC` [Compound 6, Cytosporone B], the IC50 in data set [1] (Trypanosoma cruzi) was 36.5 ± 1.9 µM; in [2] (setting [7]), under 10 µM; in data set [2], 9.1 ± 3.2 µM. Besides, the “SI (selectivity index)” value in data set [2] was over 22.0. The same compound gave a half-maximal cytotoxic concentration (CC50) at 48 h in “Cytotoxic assay (MTT)” of over 200 µM. In addition, the “mitochondrial membrane electric potential (ΔΨm)” value in the data set on T. cruzi trypomastigotes [4] is “depolarization of the membrane”; with T. cruzi trypomastigotes [4] (listed as Csn-B) it was “depolarization of the mitochondrial membrane potential; also recorded: significant depolarization”. The figures for the ATP levels result with T. cruzi trypomastigotes [5] and in the data set on T. cruzi trypomastigotes [5] (listed as Csn-B) were “ATP decrease” and “decrease in the ATP levels; also recorded: significant decrease in ATP levels; also recorded: significant reduction in intracellular ATP levels”, respectively. In addition, the antibacterial activity entry in the data set with bacteria was “potent antibacterial activity”. Further, the antimicrobial activity result in the data set on Staphylococcus aureus, in the data set with Enterococcus faecalis, in the data set with Escherichia coli and in the data set on Candida albicans was “antimicrobial activity” each time. In addition, the “action on Nur77 nuclear receptor” value in the data set on Nur77 is reported as “agonist”.
`C=C1[C@@H](C)[C@H]2[C@H](Cc3ccccc3)NC(=O)[C@]23[C@H](OC(C)=O)/C=C/[C@](C)(O)C[C@@H](C)C/C=C/[C@H]3[C@@H]1O` [Compound 7, Cytochalasin H]: in data set [1], the IC50 was determined as 47.9 ± 6.3 µM. For the same compound, the half-maximal cytotoxic concentration (CC50) in [3] was over 200 µM.
Regarding Dothiorelone A [Compound 1], the half-maximal cytotoxic concentration (CC50) in [3] was over 200 µM.
The same measure, in the same setting: to Dothiorelone B [Compound 2] belongs over 200 µM.
In the case of Dothiorelone Q [Compound 4], in data set [2], the IC50 was found to be 43 ± 9 µM. This compound gave a CC50 in data set [3] of over 200 µM. In addition, the “inhibition of TFG-β induced activation of MRC-5 cells” value in data set [6] was “inhibition”.
